{"source": "patent EP0108147B1", "about": "“Use of a protoberberine alkaloid and composition containing same” (MAROKO, Peter R., priority 1982, dated 1983)", "key": {"[1]": {"system": "closed-chest anesthetized dogs", "conditions": "for rise of diastolic pressure: only digitalis", "method": "A study was carried out to examine the effects of the simultaneous administration of berberine on digitalis (i.e. ouabain) produced arrhythmias.\nThe experiments were conducted in closed-chest anesthetized dogs which were randomized to three groups. All received ouabain 0.03 mg/Kg as a bolus intravenously and thereafter a continuous infusion with a constant rate of 0.0006 mg/Kg/min until death. […] The second group received simultaneously berberine 1 mg/Kg intravenously as a bolus and then 0.2 mg/Kg/min as a continous infusion. The third group received berberine only after the appearance of VEA in a frequency of 50% of more of all systoles.\nMoreover, the effects of intravenous bolus injection of berberine (0.4 to 1 mg/Kg) was studied (in comparison to dextrose 5% injection)."}, "dogs": {"system": "dogs", "assay": "Myocardial oxygen consumption (MV02) and epicardial ST segment elevation experiments", "assay_type": "in vivo", "source_text": "These changes were due to lower. myocardial oxygen consumption during the occlusion with berberine treatment. […] This is quite an advanageous therapeutic combination of properties which further distinguish the compounds used in the invention from the conventional drugs."}, "dog": {"system": "dog", "assay": "Protocol M simile: high or repetitive infusions in single dogs", "assay_type": "in vivo", "method": "It is noted that the dP/dt increased by 350% after the eighth dose and dF/dt by 450%.\nIn one dog using protocol M simile, 240 mg/Kg of berberine HCI was administered and dP/dt increased by 75%, aortic flow by 67%, heart rate fell from 150 to 114 beats/min., diastolic aortic pressure fell from 92 to 67 mmHg, and left atrial pressure fell from 8.5 to 7.5 mmHg.\nWhen this type of experiment was repeated with tetrahydropalmatine, a first dose of 3.5 mg/Kg was given without maintaining the pressure constant and arterial pressure fell from 142/115 to 118/90 mmHg. When the second infusion was given with constant pressure, dP/dt increased by 17%."}, "Mongrel dogs [2]": {"system": "Mongrel dogs", "assay": "Protocol Z: continuous 35 minute infusion in anesthetized open-chest dogs, constant left ventricular pressure", "assay_type": "in vivo", "method": "Mongrel dogs weighing between 15 and 25 kg were anesthetized with intravenous sodium thiamylal (20 mg/kg initially with additional doses given as needed). The dogs were intubated endotracheally, and respiration was maintained by a Harvard respirator. The chest was then opened in the fourth left intercostal space and the heart suspended temporarily in a pericardial cradle.\nAortic pressures were recorded through a polyethylene cannula introduced through the carotid artery (Statham P23 Db pressure transducer) and electrocardiogram (lead aVF) were recorded throughout the experiment on a polygraph (Gould Instruments). Another polyethylene cannula was placed in the left atrium for measurement of atrial pressure (Statham P23 Db pressure transducer). An electromagnetic flowmeter (Biotonix Laboratories) was placed around the ascending aorta and the aortic flow was recorded on a polygraph. Two catheters were inserted into the left ventricle through a femoral artery.\nThe first (\"pigtail\") served as a reference, while the second (Millar microtip transducer catheter) was connected through a Millar transducer (Millar Instruments, Houston, Texas) to the polygraph, where both left ventricular pressure curves were recorded simultaneously. The left ventricular end diastolic pressure was recorded separately through a Millar catheter. The first derivative of the left ventricular pressure (dP/dt) was obtained by electronic differentiation of the left ventricular pulse recorded through the Millar catheter.\nA reservoir of blood was connected with the femoral artery in order to maintain constant left ventricular pressure during the experiment. In this protocol, similarly to protocol M, systemic arterial pressure was maintained constant in order to have accurate measurements of dP/dt which represent well left ventricular contractility when the systolic pressure is maintained constant. However, calculated total peripheral resistance will be higher (an underestimation of the fall). After stabilization of hemodynamics as reflected by continuously monitored parameters for 15 minutes, the substances to be studied were infused intravenously using a Harvard infusion pump. Registrations were made every 5 minutes at a paper speed of 200 mm/second, while all the parameters were recorded constantly at a speed of 2 mm/second. The dogs were randomly assigned to several groups: • Group a) Control - in these dogs a solution of 5% dextrose in water was infused in the same quantity as in the berberine treated animals (n = 7).\nIn all berberine, berberrubine coreximine and tetrahydropalmatine groiups the compounds were infused at constant rate for 35 minutes and the data analyzed at 5 minute intervals. • Group b) Berberine 0.7 mg/Kg/min (n = 10). • Group c) Berberine 0.2 mg/Kg/min (n = 7). • Group d) Berberine 0.02 mg/Kg/min (n = 7). • Group e) Berberrubine 0.2 mg/Kg/min (n = 7). • Group f) Tetrahydropalmatine 0.2 mg/Kg/min (n = 4). • Group g) Coreximine 0.2 mg/Kg/min (n = 8).\nTherefore, group b, c and d were used to analyze the various effects of continuous infusion of berberine and its dose response and groups e and f and g used to examine the effects of these three other proberberines. Moreover, their effects were compared to the berberine treated dogs with the same dose (i.e. Group c)."}, "in vivo": {"assay": "in vivo", "design": "species or system rats", "conditions": "rat", "method": "Preferential concentration of berberine in the heart rather than in other thoracic organs or the liver is a sine qua non for a good imaging agent. Berberine level measurements were done spectrophotometrically. The experiment consisted of injecting 3.5 mg/Kg of berberine ([…]) intravenously and killing the rats after 15 minutes, 90 minutes, 6 hours, 24 hours, 48 hours and 1 week. Each group consisted of 5-6 rats. A control group (no berberine administration) was used to determine the absorbance of the different organs at that wave length. […] It was released rapidly from the heart thus showing no significant tendency to accumulate in that organ. Its concentrate was 1, 1 and 3 pg/g in the lungs and 0.2 and 0 in the skeletal muscles or in the blood at the same time intervals."}, "Mongrel dogs [3]": {"system": "Mongrel dogs", "assay": "Protocol HV: acute left ventricular failure by coronary microsphere embolization, closed chest", "assay_type": "in vivo", "conditions": "ouabain 0.03 mg/kg during 30 minutes", "method": "- Experiments were carried out in 21 mongrel dogs of either sex with body weight between 19 and 39 kg. Anesthesia was induced with sodium pentobarbital, 25 mg/kg of body weight intravenously, and small supplementary doses were given as necessary to maintain a constant level of anesthesia. The dogs were placed in the left lateral position and ventilation was maintained through a cuffed endotracheal tube with a volume-controlled respirator (Harvard Apparatus Co., Millis, Massachusetts). Polyethylene cannuleae were placed into the jugular and femoral veins for intravenous infusions and drug adminstration. Electrocardiograms (lead aVF) were monitored continuously throughout the experiments.\nA polyethylene cannula was introduced into the aorta through the left carotid artery to record arterial pressure. (Stantham P23 ID transducer, Stantham Instruments, Inc. Oxnard, California). A Millar microtip transducer catheter (Millar Instruments, Inc., Houston, Texas) was introduced into the left ventricular cavity through the femoral artery to measure left ventricular pressures. For adjustment of zero level, left ventricular pressure was also measured through the fluid-filled lumen in the Millar catheter (Statham P23 ID transducer). The maximal rate of rise of left ventricular pressure, LV dP/dt, was recorded by means of a differentiator. All these parameters were recorded continuously on a polygraph (Gould 2800, Gould Instruments, Cleveland, Ohio). Cardiac output was determined by the thermodilution technique, using a thermistor catheter in the pulmonary artery and calculated by a cardiac output computer (Elecath, Electro- catheter Corp., Rahway, New Jersey). The coefficient of variation for duplicate CO measurements was 5%. In addition to the parameters directly obtained, total peripheral vascular resistance was calculated from the ratio of […] and cardiac output. Stroke volume was calculated by dividing cardiac output by heart rate. Heparin (Invendex) (5000 IU) was administered to avoid clotting of the catheters.\nTo induce acute left vetricular failure, initially the left main coronary artery was catheterized with a Judkin coronary artery catheter (7F, ISCI Cardiology and Radiology Products, Billerica, Massachusetts) under fluoroscopic control. It was introduced through a femoral artery, and polystyrene microspheres (3M Company, St. Paul, Minnesota) with a diameter of 52. 5 ± 4.0 µm (mean±SD) were injected into the coronary artery. The microspheres were used in a concentration of 1 mg (i.e., 12,000) per ml saline. The first dose of microsphere solution was 0.5 mi/kg body weight, and all subsequent doses were 0.25 ml/kg body weight, administered every 5 minutes. Administration of microspheres was discontinued when LV/dP/dt had been reduced by 30% or more when measured 4 minutes after the last dose. All dogs received prophylactic antiarrhythmic treatment with intravenous lidocaine, 1.5 mg/kg body weight as a bolus 20 min after the end of embolization, followed by a continuous infusion of […].\nForty-five minutes were allowed to elapse to verify the stability of the preparation. If Lv dP/dt or left ventricular end diastolic pressure had changed by 20% or more between 30 and 45 minutes after embolization, the dogs were excluded from this study and not randomized. Forty-five minutes after the end of embolization, the dogs were assigned randomly to three groups: a) Berberine-treated group, 0.2 mg/kg/ min, dissolved in 60 ml of a solution of 5% dextrose in water administered in a constant infusion during 30 minutes; b) ouabain-treated group, 0.03 mg/kg was administered in 60 ml of a 5% solution of dextrose in water during 30 minutes; and c) Control group, administration of 60 ml of a 5% solution of dextrose in water during 30 min. […]"}, "[4]": {"system": "anesthetized closed chest dogs", "assay": "Association of ouabain and berberine on contractility (LV dP/dt), constant systolic pressure", "assay_type": "in vivo", "conditions": "ouabain 0.03 mg/Kg i.v. bolus", "method": "In anesthetized closed chest dogs the systolic arterial pressure was maintained constant with a reservoir full of heparinized blood (as in protocol \"M\" and \"Z\" described above) and a \"pigtail\" and Millar catheter were introduced into the left ventricular cavity (as in protocol \"Z\" and \"HV\", described above). All data was recorded on 8 channel polygraph (Gould Instruments) with a paper speed of 200 mm/s when necessary and at 2 mm/s constantly."}, "[5]": {"system": "healthy adult mongrel dogs", "assay": "Protocol M: hemodynamics in anesthetized open-chest dogs, systolic arterial pressure held constant", "assay_type": "in vivo"}}, "note": "Like-named read-outs stand apart in the source and are kept apart here."}
{"compound": "digitalis [reference compound]", "values": [{"measurement": "rise of diastolic pressure", "setting": "[1]; 10 minutes", "result": "31±9", "unit": "%"}, {"measurement": "rise of diastolic pressure", "setting": "[1]; 20 minutes", "result": "16±11", "unit": "%"}, {"measurement": "rise of diastolic pressure", "setting": "[1]; 30 minutes", "result": "34±15", "unit": "%"}, {"measurement": "rise of diastolic pressure", "setting": "[1]; 60 minutes", "result": "16±7", "unit": "%"}]}
{"compound": "CC(C)NCC(O)c1ccc(O)c(O)c1", "note": "(centres unmarked) [isoproterenol, reference compound]", "values": [{"measurement": "epicardial ST segment elevations", "setting": "dogs; after coronary artery occlusion", "result": "increased"}, {"measurement": "mycardial oxygen consumption (MV02)", "setting": "dogs; non-failing heart, dose that increases LV dP/dt similarly", "result": "significantly augmented"}]}
{"compound": "COc1cc2c(cc1OC)[C@@H]1Cc3ccc(OC)c(OC)c3CN1CC2", "note": "[tetrahydropalmatine]", "values": [{"measurement": "arterial pressure", "setting": "dog; first dose 3.5 mg/Kg, pressure not held constant, from 142/115", "result": "118/90"}, {"measurement": "increase of dP/dt", "setting": "dog; second infusion, constant pressure", "result": 17, "unit": "%"}, {"measurement": "reduction of calculated peripheral resistance", "setting": "Mongrel dogs [2]; 0.2 mg/Kg/min", "result": "over 30%"}, {"measurement": "fall of heart rate (HR)", "setting": "Mongrel dogs [2]; 0.2 mg/Kg/min (Table XIII)", "result": 5.5, "unit": "%"}]}
{"compound": "COc1ccc2cc3[n+](cc2c1OC)CCc1cc2c(cc1-3)OCO2", "note": "[berberine (S04), berberine]", "values": [{"measurement": "concentrate in the liver", "setting": "in vivo; 15 min", "result": "0 1l9/g"}, {"measurement": "concentrate in the liver", "setting": "in vivo; 90 min", "result": "6 1l9/g"}, {"measurement": "concentrate in the liver", "setting": "in vivo; 6 h", "result": "2 1l9/g"}, {"measurement": "concentration at 15 min", "setting": "in vivo; concentrate in the lungs", "result": 0.001, "unit": "ng/g"}, {"measurement": "concentration at 90 min", "setting": "in vivo; concentrate in the lungs", "result": 0.001, "unit": "ng/g"}, {"measurement": "concentration at 6 h", "setting": "in vivo; concentrate in the lungs", "result": 0.003, "unit": "ng/g"}]}
{"compound": "C[C@@H]1O[C@@H](O[C@H]2C[C@@H](O)[C@]3(CO)[C@H]4[C@H](O)C[C@]5(C)[C@@H](C6=CC(=O)OC6)CC[C@]5(O)[C@@H]4CC[C@]3(O)C2)[C@H](O)[C@H](O)[C@H]1O", "note": "[ouabain, reference compound]", "values": [{"measurement": "hemodynamic parameters from before to 30 minutes after the start of drug administration", "setting": "Mongrel dogs [3]", "result": "did not change any of the hemodynamic parameters"}, {"measurement": "dose of ouabain to provoke VT", "setting": "[1]; control situation, ouabain alone", "result": 0.04, "unit": "mg/kg"}, {"measurement": "amount of ouabain that provoked VT", "setting": "[1]; controls, ouabain alone", "result": 0.048, "unit": "mg/kg"}, {"measurement": "increase in dP/dt, of the initial value of peak LV dP/dt", "setting": "[4]; 5 minutes", "result": "17±2", "unit": "%"}, {"measurement": "increase in dP/dt, of the initial value of peak LV dP/dt", "setting": "[4]; 10 minutes", "result": "24±3", "unit": "%"}, {"measurement": "increase in dP/dt, of the initial value of peak LV dP/dt", "setting": "[4]; 15 minutes", "result": "34±4", "unit": "%"}, {"measurement": "increase in dP/dt, of the initial value of peak LV dP/dt", "setting": "[4]; 20 minutes", "result": "36±4", "unit": "%"}, {"measurement": "increase in dP/dt, of the initial value of peak LV dP/dt", "setting": "[4]; 25 minutes", "result": "44±6", "unit": "%"}, {"measurement": "increase in dP/dt, of the initial value of peak LV dP/dt", "setting": "[4]; 30 minutes", "result": "49±7", "unit": "%"}, {"measurement": "flow in the descending aorta", "setting": "[5]; after ouabain 0.03 mg/Kg i.v. bolus, from 1195 ± 89", "result": "1018 ± 93", "unit": "mL/min"}, {"measurement": "diastolic aortic pressure", "setting": "[5]; ouabain 0.03 mg/Kg i.v. bolus", "result": "did not change significantly"}, {"measurement": "increase of calculated peripheral resistance", "setting": "[5]; ouabain 0.03 mg/Kg i.v. bolus", "result": 18, "unit": "%"}, {"measurement": "decrease of flow in the descending aorta", "setting": "[5]; ouabain 0.03 mg/Kg i.v. bolus, 11 dogs, after the 90 minute experiments", "result": 15, "unit": "%"}]}
